Assay [1] deals with High fat diet-fed mice. As to the kind of experiment: Fecal protein concentration-increasing test using high fat diet-fed mouse. In kind it is in vivo. The settings on record: feces of first day of administration. The text has this: Test Example 2: Fecal Protein Concentration-Increasing Test Using High Fat Diet-Fed Mouse
High fat diet-fed mice (D12451 diet, male, 10- to 50-week old) were orally administered with a 0.5% methyl cellulose suspension containing a test compound (compound administration group, five mice per group) or a 0.5% methyl cellulose suspension (compound non-administration group (vehicle group), five mice per group), and whole feces were collected on the first day of administration. Dried feces were dissolved in 0.5 N NaOH, followed by centrifugation at 12,000 rpm. The protein concentration in the supernatant was then quantitatively measured (Lowry method), and the amount of protein contained in 1 g of feces was calculated as the fecal protein concentration (mg/g feces). The fecal protein concentration-increasing rate was calculated by the following expression.
Fecal protein concentration-increasing rate (%)=Fecal protein concentration of compound administration group/Fecal protein concentration of vehicle group×100

Assay [2] concerns the target T1, Human recombinant enteropeptidase (Homo sapiens, UniProt P98073).
T1 construct: purchased ITSI-Biosciences LLC #REN-260
The assay can be described thus: Human enteropeptidase inhibitory activity. In kind it is biochemical. Conditions: 1 μM test compound; fluorescence intensity at 2 hours after start of reaction; read-out: Inhibition rate at 1 μM. How it is done:
Test Example 1: Human Enteropeptidase Inhibitory Activity
Human recombinant enteropeptidase (#REN-260, ITSI-Biosciences LLC) was diluted with an assay buffer (50 mM Tricine, pH 8.0, 0.01 (w/v) %, Tween 20, 10 mM CaCl2)) to prepare a 24 mU/mL enzyme solution. Subsequently, 5FAM-Abu-Gly-Asp-Asp-Asp-Lys-Ile-Val-Gly-Gly-Lys(CPQ2)-Lys-Lys-NH2 (CPC Scientific Inc.) was diluted with the assay buffer to prepare a 2.1 μM substrate solution. A test compound is dissolved in DMSO into a 10 mM solution, and the solution was diluted with the assay buffer to give a compound solution. To a 384-well black plate (#784076, Greiner Bio-One), 5 μL of the compound solution and 5 μL of the substrate solution were added and mixed, and 5 μL of the enzyme solution was then added to the mixture, followed by mixing to start the reaction. The fluorescence intensity was measured with a fluorescence plate reader EnVision (The Perkin-Elmer Corp.) at an excitation wavelength of 485 nm and a fluorescence wavelength of 535 nm. The same reaction as above was performed without the addition of the test compound (test compound non-addition group). Furthermore, the same reaction as above was performed without the addition of the test compound and the enzyme (control group). The inhibition rate was calculated using the fluorescence intensity at 2 hours after the start of the reaction by the following expression:
Inhibition rate (%)=(1−((fluorescence intensity of test compound addition group)−(fluorescence intensity of control group))/((fluorescence intensity of test compound non-addition group)−(fluorescence intensity of control group)))×100

In assay [3] the test system is Diet-induced obesity (DIO) mice. The assay can be described thus: Anti-obesity effect test using DIO mouse. The settings on record: for Body weight (g) At start of administration: average at start of administration; for Body weight (g) After 7-day administration: average; for Fecal protein concentration-increasing rate (%): feces of eighth day, vehicle = 100. The format is in vivo. How it is done: Test Example 3: Anti-Obesity Effect Test Using DIO Mouse
Diet-induced obesity (DIO) mice (D12451 diet, male, 26-week old) were orally administered with a 0.5% methyl cellulose suspension containing a test compound (30 mg/kg) (compound administration group, five mice per group) or a 0.5% methyl cellulose suspension (compound non-administration group (vehicle), five mice per group) once a day for seven days, and whole feces were collected on the eighth day of administration. Dried feces were dissolved in 0.5 N NaOH, followed by centrifugation at 12,000 rpm. The protein concentration in the supernatant was then quantitatively measured (Lowry method), and the amount of protein contained in 1 g of feces was calculated as the fecal protein concentration (mg/g feces). The fecal protein concentration-increasing rate was calculated by the following expression.
Fecal protein concentration-increasing rate (%)=Fecal protein concentration of compound administration group/Fecal protein concentration of vehicle group X 100
The fecal protein concentration-increasing rate and the averages of the body weights at the start of administration and after administration for seven days are shown in Table 6.
Also, DIO mice (D12451 diet, male, 59-week old) were orally administered with a 0.5% methyl cellulose suspension containing a test compound (20 mg/kg) (compound administration group, five mice per group) or a 0.5% methyl cellulose suspension (compound non-administration group (vehicle), five mice per group) once a day for seven days, and whole feces were collected on the eighth day of administration. The fecal protein concentration (mg/g feces) was calculated by the method described above. The fecal protein concentration-increasing rate and the averages of the body weights at the start of administration and after administration for seven days are shown in Table 7.

Where [4] appears, read: Mus musculus, po, 24 h, 30 mg/kg oral, vehicle group = 100, read-out: Fecal protein concentration-increasing rate.
The mark [5] stands for this setting: DIO mice 26-week old, 30 mg/kg oral once a day for seven days.
Where [6] appears, read: DIO mice 59-week old, 20 mg/kg oral once a day for seven days.

This is an account of results in patent publication US20210403420A1, “BENZOATE COMPOUND” (SCOHIA PHARMA, INC., priority 2018, published 2021).

Structures are written as SMILES. Where a name gives a salt, the structure may show the parent alone.

T1 sequence (P98073 whole entry): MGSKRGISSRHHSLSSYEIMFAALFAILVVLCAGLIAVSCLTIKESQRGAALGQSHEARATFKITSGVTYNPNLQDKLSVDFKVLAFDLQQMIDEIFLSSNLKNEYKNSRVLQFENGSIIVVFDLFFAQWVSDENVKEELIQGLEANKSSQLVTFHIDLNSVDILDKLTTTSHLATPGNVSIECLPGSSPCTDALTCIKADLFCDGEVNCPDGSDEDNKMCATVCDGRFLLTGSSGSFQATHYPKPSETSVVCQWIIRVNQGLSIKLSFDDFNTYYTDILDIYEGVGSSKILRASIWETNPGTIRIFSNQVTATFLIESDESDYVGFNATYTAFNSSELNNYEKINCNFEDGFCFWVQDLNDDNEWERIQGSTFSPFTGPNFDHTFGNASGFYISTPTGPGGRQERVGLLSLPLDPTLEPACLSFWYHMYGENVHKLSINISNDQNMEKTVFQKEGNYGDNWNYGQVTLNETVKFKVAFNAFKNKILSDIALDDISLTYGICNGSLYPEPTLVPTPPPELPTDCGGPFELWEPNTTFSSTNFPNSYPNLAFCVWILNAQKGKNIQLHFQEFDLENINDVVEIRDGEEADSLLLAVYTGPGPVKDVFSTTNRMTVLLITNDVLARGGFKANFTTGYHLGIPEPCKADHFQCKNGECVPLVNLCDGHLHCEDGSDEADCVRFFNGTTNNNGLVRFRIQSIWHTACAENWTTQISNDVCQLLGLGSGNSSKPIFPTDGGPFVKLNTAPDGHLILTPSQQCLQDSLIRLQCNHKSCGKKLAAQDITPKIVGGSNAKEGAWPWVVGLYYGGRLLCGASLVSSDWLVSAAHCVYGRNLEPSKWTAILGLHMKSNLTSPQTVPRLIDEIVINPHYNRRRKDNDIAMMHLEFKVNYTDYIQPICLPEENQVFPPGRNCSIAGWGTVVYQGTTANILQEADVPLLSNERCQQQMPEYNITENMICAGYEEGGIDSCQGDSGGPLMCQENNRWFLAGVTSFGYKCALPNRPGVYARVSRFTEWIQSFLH

`N=C(N)Nc1ccc(C(=O)Oc2ccc(CCC(=O)N[C@@H](CC(=O)O)C(=O)O)c(OCCOCCOCCOc3cc(OC(=O)c4ccc(NC(=N)N)cc4)ccc3CCC(=O)N[C@@H](CC(=O)O)C(=O)O)c2)cc1` [Example 4, (2S)-2-[3-[2-[2-[2-[2-[2-[3-[[(1S)-1,2-Dicarboxyethyl]amino]-3-oxopropyl]-5-(4-guanidinobenzoyl)oxyphenoxy]ethoxy]ethoxy]ethoxy]-4-(4-guanidinobenzoyl)oxyphenyl]propanoylamino]butanedioic acid ditrifluoroacetate]: the “Fecal protein concentration-increasing rate” value in assay [1] (30 mg/kg oral, vehicle group = 100, ditrifluoroacetate) is given as 181%.
As to `N=C(N)Nc1ccc(C(=O)Oc2cc(OCCOCCOc3cc(OC(=O)c4ccc(NC(=N)N)cc4)cc(C(=O)NCCS(=O)(=O)O)c3)cc(C(=O)NCCS(=O)(=O)O)c2)cc1` [Example 20, 2-[[3-(4-Guanidinobenzoyl)oxy-5-[2-[2-[3-(4-guanidinobenzoyl)oxy-5-(2-sulfoethylcarbamoyl)phenoxy]ethoxy]ethoxy]benzoyl]amino]ethanesulfonic acid ditrifluoroacetate], the response vs control in vivo at 10 mg/kg in assay [1] (Mus musculus, po, 24 h, 10 mg/kg oral, vehicle group = 100, read-out: Fecal protein concentration-increasing rate) is 143%. The inhibition at 1 µM in assay [2] is 99%.
For the compound `N=C(N)Nc1ccc(C(=O)Oc2cc(OCCOCCOCCOc3cc(OC(=O)c4ccc(NC(=N)N)cc4)cc(C(=O)N[C@H](CO)C(=O)O)c3)cc(C(=O)N[C@H](CO)C(=O)O)c2)cc1` [Example 10, (2R)-2-[[3-[2-[2-[2-[3-[[(1R)-1-Carboxy-2-hydroxyethyl]carbamoyl]-5-(4-guanidinobenzoyl)oxyphenoxy]ethoxy]ethoxy]ethoxy]-5-(4-guanidinobenzoyl)oxybenzoyl]amino]-3-hydroxypropanoic acid], the response vs control in vivo at 30 mg/kg in assay [1] (setting [4]) was determined as 179%. Besides, the inhibition at 1 µM in assay [2] is 92%.
The matching figures for `N=C(N)Nc1ccc(C(=O)Oc2cc(OCCOCCOCCOCCOCCOCCOCCOc3cc(OC(=O)c4ccc(NC(=N)N)cc4)cc(C(=O)N[C@@H](CC(=O)O)C(=O)O)c3)cc(C(=O)N[C@@H](CC(=O)O)C(=O)O)c2)cc1` [Example 3, (2S)-2-[[3-[2-[2-[2-[2-[2-[2-[2-[3-[[(1S)-1,2-Dicarboxyethyl]carbamoyl]-5-(4-guanidinobenzoyl)oxyphenoxy]ethoxy]ethoxy]ethoxy]ethoxy]ethoxy]ethoxy]ethoxy]-5-(4-guanidinobenzoyl)oxybenzoyl]amino]butanedioic acid]: 152% and 98%.
Take `N=C(N)Nc1ccc(C(=O)Oc2cc(OCCOCCOc3cc(OC(=O)c4ccc(NC(=N)N)cc4)cc(C(=O)N[C@@H](CC(=O)O)C(=O)O)c3)cc(C(=O)N[C@@H](CC(=O)O)C(=O)O)c2)cc1` [Example 17, (2S)-2-[[3-[2-[2-[3-[[(1S)-1,2-Dicarboxyethyl]carbamoyl]-5-(4-guanidinobenzoyl)oxyphenoxy]ethoxy]ethoxy]-5-(4-guanidinobenzoyl)oxybenzoyl]amino]butanedioic acid dihydrochloride]: the “Body weight (g) At start of administration” value in assay [3] (DIO mice 26-week old, 30 mg/kg group) came out at 45.6 g. In assay [3] (setting [5]), the “Body weight (g) After 7-day administration” value came out at 44.3 g and the “Fecal protein concentration-increasing rate (%)” value was found to be 252%.
Regarding `N=C(N)Nc1ccc(C(=O)Oc2ccc(OCCOCCOc3ccc(OC(=O)c4ccc(NC(=N)N)cc4)cc3C(=O)N[C@H](CC(=O)O)C(=O)O)c(C(=O)N[C@H](CC(=O)O)C(=O)O)c2)cc1` [Example 19, (2R)-2-[[2-[2-[2-[2-[[(1R)-1,2-Dicarboxyethyl]carbamoyl]-4-(4-guanidinobenzoyl)oxyphenoxy]ethoxy]ethoxy]-5-(4-guanidinobenzoyl)oxybenzoyl]amino]butanedioic acid], the response vs control in vivo at 30 mg/kg in assay [1] (setting [4]) is 215%. Besides, in assay [2], the inhibition at 1 µM amounted to 100%.
As for `N=C(N)Nc1ccc(C(=O)Oc2ccc(CCC(=O)N[C@H](CC(=O)O)C(=O)O)c(OCCOCCOCCOc3cc(OC(=O)c4ccc(NC(=N)N)cc4)ccc3CCC(=O)N[C@H](CC(=O)O)C(=O)O)c2)cc1` [Example 14, (2R)-2-[3-[2-[2-[2-[2-[2-[3-[[(1R)-1,2-Dicarboxyethyl]amino]-3-oxopropyl]-5-(4-guanidinobenzoyl)oxyphenoxy]ethoxy]ethoxy]ethoxy]-4-(4-guanidinobenzoyl)oxyphenyl]propanoylamino]butanedioic acid], the response vs control in vivo at 30 mg/kg in assay [1] (setting [4]) is 171%. Moreover, the inhibition at 1 µM in assay [2] came to 100%.
On to `N=C(N)Nc1ccc(C(=O)Oc2cc(OCCOCCOCCOc3cc(OC(=O)c4ccc(NC(=N)N)cc4)cc(C(=O)N(CC(=O)O)CC(=O)O)c3)cc(C(=O)N(CC(=O)O)CC(=O)O)c2)cc1` [Example 5, 2-[[3-[2-[2-[2-[3-[Bis(carboxymethyl)carbamoyl]-5-(4-guanidinobenzoyl)oxyphenoxy]ethoxy]ethoxy]ethoxy]-5-(4-guanidinobenzoyl)oxybenzoyl]-(carboxymethyl)amino]acetic acid ditrifluoroacetate], for which the response vs control in vivo at 30 mg/kg in assay [1] (setting [4]) was 158%. Moreover, the inhibition at 1 µM in assay [2] worked out at 99%.
For the compound `N=C(N)Nc1ccc(C(=O)Oc2cc(OCCOCCOc3cc(OC(=O)c4ccc(NC(=N)N)cc4)cc(C(=O)N[C@@H](CC(=O)O)C(=O)O)c3)cc(C(=O)N[C@@H](CC(=O)O)C(=O)O)c2)cc1` [Example 8, (2S)-2-[[3-[2-[2-[3-[[(1S)-1,2-Dicarboxyethyl]carbamoyl]-5-(4-guanidinobenzoyl)oxyphenoxy]ethoxy]ethoxy]-5-(4-guanidinobenzoyl)oxybenzoyl]amino]butanedioic acid ditrifluoroacetate], the response vs control in vivo at 30 mg/kg in assay [1] (setting [4]) came to 210%. Moreover, the inhibition at 1 µM in assay [2] was found to be 100%.
Take `N=C(N)c1ccc(OC(=O)c2cc(OCCOCCOCCOc3cc(C(=O)N[C@@H](CC(=O)O)C(=O)O)cc(C(=O)Oc4ccc(C(=N)N)cc4)c3)cc(C(=O)N[C@@H](CC(=O)O)C(=O)O)c2)cc1` [Example 7, (2S)-2-[[3-(4-Carbamimidoylphenoxy)carbonyl-5-[2-[2-[2-[3-(4-carbamimidoylphenoxy)carbonyl-5-[[(1S)-1,2-dicarboxyethyl]carbamoyl]phenoxy]ethoxy]ethoxy]ethoxy]benzoyl]amino]butanedioic acid ditrifluoroacetate]: in assay [1] (setting [4]), the response vs control in vivo at 30 mg/kg was 115%. Also, the inhibition at 1 µM in assay [2] was 100%.
As for `N=C(N)Nc1ccc(C(=O)Oc2ccc(C(=O)N[C@H](CC(=O)O)C(=O)O)c(OCCOc3cc(OC(=O)c4ccc(NC(=N)N)cc4)ccc3C(=O)N[C@H](CC(=O)O)C(=O)O)c2)cc1` [Example 22, (2R)-2-[[2-[2-[2-[[(1R)-1,2-Dicarboxyethyl]carbamoyl]-5-(4-guanidinobenzoyl)oxyphenoxy]ethoxy]-4-(4-guanidinobenzoyl)oxybenzoyl]amino]butanedioic acid dihydrochloride], the “Body weight (g) At start of administration” value in assay [3] (DIO mice 59-week old, 20 mg/kg group) was determined as 56.5 g. In addition, in assay [3] (setting [6]), the “Body weight (g) After 7-day administration” value stood at 55.1 g and the “Fecal protein concentration-increasing rate (%)” value came out at 221%.
